Source: US5883240A, “Genetic sequences encoding glucocorticoid dehydrogenases and uses therefor” (Baker Medical Research Institute, priority 1995, dated 1999)

How the values were obtained:
[1] = molecular target: T1, 11 βHSD2 (Homo sapiens, UniProt P80365); experiment: Cofactor specificity of glucocorticoid metabolism in homogenates of pHSD2 transfected CHOP cells; assay type: biochemical; details: 1 mM NAD+ or 1 mM NADP+, 1-2 nM tritiated plus 10 nM unlabelled substrate, 37° C., 40 minutes, TLC
T1 sequence (P80365 1-405 V148L): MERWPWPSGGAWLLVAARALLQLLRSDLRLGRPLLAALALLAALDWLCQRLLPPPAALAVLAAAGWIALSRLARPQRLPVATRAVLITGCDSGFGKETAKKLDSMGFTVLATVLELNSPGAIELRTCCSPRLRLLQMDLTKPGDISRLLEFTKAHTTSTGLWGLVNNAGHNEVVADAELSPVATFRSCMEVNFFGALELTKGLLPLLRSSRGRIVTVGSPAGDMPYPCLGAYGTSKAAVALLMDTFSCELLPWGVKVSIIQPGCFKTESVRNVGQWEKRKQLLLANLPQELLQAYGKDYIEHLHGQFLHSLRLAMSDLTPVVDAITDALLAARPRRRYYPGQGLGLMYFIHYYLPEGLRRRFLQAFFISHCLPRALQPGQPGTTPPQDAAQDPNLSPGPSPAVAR
Method: CHOP cells were transfected with plasmid pHSD2, which contains an insert encoding 11 βHSD2. After 60 hours incubation in 85 mm plates, cellular homogenates were prepared and assayed for their ability to metabolise glucocorticoid substrates in the presence of 1 mM NAD+, or 1 mM NADP+. Confluent cells were homogenised in 1 ml of homogenisation buffer (0.25M sucrose, 10 MM phosphate, pH 7). Reaction mixtures (500 μl) contained either 40 μl of homogenate plus [^3 H]corticosterone, or 80 μl of homogenate plus [^3 H]cortisol, or 120 μl of homogenate plus [^3 H]dexamethasone, in homogenisation buffer. All reactions contained 1-2 nM tritiated glucocorticoid substrate plus 10 nM unlabelled glucocorticoid substrate. Reaction mixtures were incubated at 37° C. for 40 minutes and steroid metabolites were assayed by thin layer chromatography.

[2] = molecular target: T1, 11 βHSD2; experiment: Directionality and end-product inhibition in intact pHSD2 transfected CHOP cells; assay type: cell-based; details: monolayer cultures, 1.5 hours at 37° C., labelled substrate, TLC of culture medium
Method: To determine directionality and extent of end production inhibition of the enzyme encoded by pHSD2, monolayer cultures of transfected CHOP cells were incubated for 1.5 hours at 37° C. with 1-2 nM labelled substrates plus 10 nM corresponding unlabelled 11-dehydro metabolite (FIG. 2b). The culture medium was then removed, extracted and assayed by TLC for the presence of the 11-dehydro metabolite.

[3] = molecular target: T1, 11 βHSD2; assay type: biochemical; details: substrate Km, double reciprocal plot, homogenates of pHSD2 transfected CHOP cells, 37° C., mean±SD, n=3
From the text: The efficiency of the dehydrogenase may be further increased by mechanisms such as intracellular compartmentalisation of the enzyme.

Structure (SMILES)	glucocorticoid metabolism to 11-dehydro metabolite, cofactor dependence [1]	metabolite formation by intact transfected CHOP cells [2]	Km [3]
C[C@@H]1C[C@H]2[C@@H]3CCC4=CC(=O)C=C[C@]4(C)[C@@]3(F)[C@@H](O)C[C@]2(C)[C@@]1(O)C(=O)CO [dexamethasone]	only showed significant glucocorticoid metabolism when NAD+, but not NADP+, was included as a cofactor		
C[C@]12C[C@H](O)[C@H]3[C@@H](CCC4=CC(=O)CC[C@@]43C)[C@@H]1CC[C@@H]2C(=O)CO [corticosterone]	only showed significant glucocorticoid metabolism when NAD+, but not NADP+, was included as a cofactor	converted	0.0044 ± 0.0012 µM
C[C@]12CCC(=O)C=C1CC[C@@H]1[C@@H]2[C@@H](O)C[C@@]2(C)[C@H]1CC[C@]2(O)C(=O)CO [cortisol]	only showed significant glucocorticoid metabolism when NAD+, but not NADP+, was included as a cofactor	converted	0.047 ± 0.0018 µM
C[C@]12CC(=O)[C@H]3[C@@H](CCC4=CC(=O)CC[C@@]43C)[C@@H]1CC[C@@H]2C(=O)CO [11-dehydro corticosterone]		no metabolite formed	
C[C@]12CCC(=O)C=C1CC[C@@H]1[C@@H]2C(=O)C[C@@]2(C)[C@H]1CC[C@]2(O)C(=O)CO [cortisone]		no metabolite formed	
